The NIST ThermoML archive (doi:10.1016/j.jct.2010.06.008)

Test: xn = mol fraction of the nth substance listed
Conditions: 101 kPa, Liquid; for mass density: Vibrating tube method; for speed of sound: Sing-around technique in a fixed-path interferometer

CCCCCl [1-chlorobutane] + CCCCCCC
mass density [kg/m3]
Conditions	283.15 K	298.15 K	313.15 K
x2 = 0	897.339	880.785	863.882
x2 = 0.0508	882.735	866.442	849.802
x2 = 0.1017	868.636	852.592	836.205
x2 = 0.1981	843.549	827.947	812.014
x2 = 0.2989	819.278	804.127	788.662
x2 = 0.4022	796.314	781.594	766.57
x2 = 0.4998	776.207	761.86	747.232
x2 = 0.6008	756.852	742.869	728.632
x2 = 0.6989	739.334	725.722	711.853
x2 = 0.7985	722.761	709.483	695.957
x2 = 0.898	707.234	694.282	681.084
x2 = 0.9498	699.591	686.802	673.764

CC(C)(C)Cl [2-chloro-2-methylpropane] + CCCCCC
Conditions	mass density, 283.15 K [kg/m3]	mass density, 298.15 K [kg/m3]	mass density, 313.15 K [kg/m3]	speed of sound, 283.15 K [m/s]	speed of sound, 298.15 K [m/s]	speed of sound, 313.15 K [m/s]
x2 = 0	855.249	837.096	818.536	1046.9	983.25	919.41
x2 = 0.0495	843.636	825.763	807.514	1049.8	985.59	922.06
x2 = 0.0989	832.389	814.802	796.851	1052.2	987.79	924.46
x2 = 0.2019	809.862	792.826	775.465	1058.6	993.98	930.06
x2 = 0.2987	789.789	773.235	756.4	1065.7	1000.7	936.45
x2 = 0.4043	768.847	752.8	736.513	1074.5	1009.1	944.41
x2 = 0.4985	751.114	735.482	719.653	1083.1	1017.5	952.34
x2 = 0.6024	732.382	717.205	701.869	1093.7	1027.6	962.01
x2 = 0.7017	715.376	700.606	685.731	1104.7	1038.2	972.24
x2 = 0.7996	699.305	684.94	670.488	1116.6	1049.7	983.31
x2 = 0.9025	683.186	669.222	655.21	1130.4	1063	996.24
x2 = 0.9498	676.073	662.283	648.468	1137.2	1069.5	1002.6
